The source made the active and inactive calls. The rule behind the calls is not given here.
System: CCRIS mutagenicity, Ames/micronucleus/aberration tests
Experiment: CCRIS mutagenicity studies
[1] = Test System: AMES SALMONELLA TYPHIMURIUM, Strain/Indicator: TA98, Metabolic Activation: NONE, Method: PREINCUBATION
[2] = Test System: AMES SALMONELLA TYPHIMURIUM, Strain/Indicator: TA100, Metabolic Activation: NONE, Method: PREINCUBATION

SMILES: Cc1c(C(=O)O)c(O)cc2c1C(=O)c1c(O)c([C@@H]3O[C@H](CO)[C@@H](O)[C@H](O)[C@H]3O)c(O)c(O)c1C2=O
- mutagenic call (Test System: AMES SALMONELLA TYPHIMURIUM, Strain/Indicator: TA98, Metabolic Activation: HAMSTER, LIVER, S-9, AROCLOR 1254, Method: STANDARD PLATE): inactive; negative
- mutagenic call (Test System: AMES SALMONELLA TYPHIMURIUM, Strain/Indicator: TA98, Metabolic Activation: NONE): inactive; negative
- mutagenic call (Test System: AMES SALMONELLA TYPHIMURIUM, Strain/Indicator: TA98, Metabolic Activation: NONE, Method: STANDARD PLATE): inactive; negative
- mutagenic call (Test System: AMES SALMONELLA TYPHIMURIUM, Strain/Indicator: TA98, Metabolic Activation: RAT, LIVER, S-9, AROCLOR 1254 (10 OR 30%)): inactive; negative
- mutagenic call (Test System: AMES SALMONELLA TYPHIMURIUM, Strain/Indicator: TA98, Metabolic Activation: RAT, LIVER, S-9, AROCLOR 1254, Method: STANDARD PLATE): inactive; negative
- mutagenic call (Test System: AMES SALMONELLA TYPHIMURIUM, Strain/Indicator: TA100, Metabolic Activation: HAMSTER, LIVER, S-9, AROCLOR 1254, Method: STANDARD PLATE): inactive; negative
- mutagenic call (Test System: AMES SALMONELLA TYPHIMURIUM, Strain/Indicator: TA100, Metabolic Activation: NONE): inactive; negative
- mutagenic call (Test System: AMES SALMONELLA TYPHIMURIUM, Strain/Indicator: TA100, Metabolic Activation: NONE, Method: STANDARD PLATE): inactive; negative
- mutagenic call (Test System: AMES SALMONELLA TYPHIMURIUM, Strain/Indicator: TA100, Metabolic Activation: RAT, LIVER, S-9, AROCLOR 1254 (10%)): inactive; negative
- mutagenic call (Test System: AMES SALMONELLA TYPHIMURIUM, Strain/Indicator: TA100, Metabolic Activation: RAT, LIVER, S-9, AROCLOR 1254 (10 OR 30%)): inactive; negative
- mutagenic call (Test System: AMES SALMONELLA TYPHIMURIUM, Strain/Indicator: TA100, Metabolic Activation: RAT, LIVER, S-9, AROCLOR 1254, Method: STANDARD PLATE): inactive; negative
- mutagenic call (Test System: AMES SALMONELLA TYPHIMURIUM, Strain/Indicator: TA1535, Metabolic Activation: HAMSTER, LIVER, S-9, AROCLOR 1254, Method: STANDARD PLATE): inactive; negative
- mutagenic call (Test System: AMES SALMONELLA TYPHIMURIUM, Strain/Indicator: TA1535, Metabolic Activation: NONE): inactive; negative
- mutagenic call (Test System: AMES SALMONELLA TYPHIMURIUM, Strain/Indicator: TA1535, Metabolic Activation: NONE, Method: STANDARD PLATE): inactive; negative
- mutagenic call (Test System: AMES SALMONELLA TYPHIMURIUM, Strain/Indicator: TA1535, Metabolic Activation: RAT, LIVER, S-9, AROCLOR 1254 (10 OR 30%)): inactive; negative
- mutagenic call (Test System: AMES SALMONELLA TYPHIMURIUM, Strain/Indicator: TA1535, Metabolic Activation: RAT, LIVER, S-9, AROCLOR 1254, Method: STANDARD PLATE): inactive; negative
- mutagenic call (Test System: AMES SALMONELLA TYPHIMURIUM, Strain/Indicator: TA1537, Metabolic Activation: HAMSTER, LIVER, S-9, AROCLOR 1254, Method: STANDARD PLATE): inactive; negative
- mutagenic call (Test System: AMES SALMONELLA TYPHIMURIUM, Strain/Indicator: TA1537, Metabolic Activation: NONE): inactive; negative
- mutagenic call (Test System: AMES SALMONELLA TYPHIMURIUM, Strain/Indicator: TA1537, Metabolic Activation: NONE, Method: STANDARD PLATE): inactive; negative
- mutagenic call (Test System: AMES SALMONELLA TYPHIMURIUM, Strain/Indicator: TA1537, Metabolic Activation: RAT, LIVER, S-9, AROCLOR 1254 (10 OR 30%)): inactive; negative
- mutagenic call (Test System: AMES SALMONELLA TYPHIMURIUM, Strain/Indicator: TA1537, Metabolic Activation: RAT, LIVER, S-9, AROCLOR 1254, Method: STANDARD PLATE): inactive; negative
- mutagenic call (Test System: AMES SALMONELLA TYPHIMURIUM, Strain/Indicator: TA1538, Metabolic Activation: HAMSTER, LIVER, S-9, AROCLOR 1254, Method: STANDARD PLATE): inactive; negative
- mutagenic call (Test System: AMES SALMONELLA TYPHIMURIUM, Strain/Indicator: TA1538, Metabolic Activation: NONE, Method: STANDARD PLATE): inactive; negative
- mutagenic call (Test System: AMES SALMONELLA TYPHIMURIUM, Strain/Indicator: TA1538, Metabolic Activation: RAT, LIVER, S-9, AROCLOR 1254, Method: STANDARD PLATE): inactive; negative
- mutagenic call (Test System: MOUSE LYMPHOMA, Strain/Indicator: L5178Y (TK+/TK-), Metabolic Activation: NONE, Method: SUSPENSION/PLATE): active; positive. reevaluation of results: positive
- mutagenic call (Test System: MOUSE LYMPHOMA, Strain/Indicator: L5178Y (TK+/TK-), Metabolic Activation: RAT, LIVER, S-9, AROCLOR 1254, Method: SUSPENSION/PLATE): active; positive. reevaluation of results: positive
- mutagenic call (Test System: UDS RODENT HEPATOCYTES, Strain/Indicator: THY INCORP, Metabolic Activation: NONE, Method: AUTORADIOGRAPHY): inactive; negative

SMILES: COC(C)CCO (configuration not stated)
- mutagenic call [1]: inactive; negative
- mutagenic call (Test System: AMES SALMONELLA TYPHIMURIUM, Strain/Indicator: TA98, Metabolic Activation: RAT LIVER S-9, PHENOBARBITAL AND BETA-NAPHTHOFLAVONE, Method: PREINCUBATION): inactive; negative
- mutagenic call [2]: inactive; negative
- mutagenic call (Test System: AMES SALMONELLA TYPHIMURIUM, Strain/Indicator: TA100, Metabolic Activation: RAT LIVER S-9, PHENOBARBITAL AND BETA-NAPHTHOFLAVONE, Method: PREINCUBATION): inactive; negative
- mutagenic call (Test System: AMES SALMONELLA TYPHIMURIUM, Strain/Indicator: TA1535, Metabolic Activation: NONE, Method: PREINCUBATION): inactive; negative
- mutagenic call (Test System: AMES SALMONELLA TYPHIMURIUM, Strain/Indicator: TA1535, Metabolic Activation: RAT LIVER S-9, PHENOBARBITAL AND BETA-NAPHTHOFLAVONE, Method: PREINCUBATION): inactive; negative
- mutagenic call (Test System: AMES SALMONELLA TYPHIMURIUM, Strain/Indicator: TA1537, Metabolic Activation: NONE, Method: PREINCUBATION): inactive; negative
- mutagenic call (Test System: AMES SALMONELLA TYPHIMURIUM, Strain/Indicator: TA1537, Metabolic Activation: RAT LIVER S-9, PHENOBARBITAL AND BETA-NAPHTHOFLAVONE, Method: PREINCUBATION): inactive; negative
- mutagenic call (Test System: E.COLI, Strain/Indicator: WP2UVRA/PKM101, Metabolic Activation: NONE, Method: PREINCUBATION): inactive; negative
- mutagenic call (Test System: E.COLI, Strain/Indicator: WP2UVRA/PKM101, Metabolic Activation: RAT LIVER S-9, PHENOBARBITAL AND BETA-NAPHTHOFLAVONE, Method: PREINCUBATION): inactive; negative

SMILES: O=C1C=Cc2ccc3c4c(ccc1c24)C(=O)c1ccccc1-3
- mutagenic call (Test System: CHINESE HAMSTER V-79, Strain/Indicator: V-79/8-AZAGUANINE, Metabolic Activation: NONE, Method: STANDARD PLATE): active; positive

SMILES: Cc1c2c3c(cccc3c3ccccc13)-c1ccccc1-2
- mutagenic call (Test System: AMES SALMONELLA TYPHIMURIUM, Strain/Indicator: TA100, Metabolic Activation: RAT, LIVER, S-9, AROCLOR 1254): active; positive

SMILES: C[C@H](CCN=[N+]=[N-])c1ccccc1
- mutagenic call (Test System: AMES SALMONELLA TYPHIMURIUM, Strain/Indicator: TA100, Metabolic Activation: RAT, LIVER, S-9, PCB, Method: PREINCUBATION): active; positive

SMILES: O=[N+]([O-])c1ccc(N=N/C(=N\Nc2ccc(I)cc2)c2ccccc2)cc1
- mutagenic call (Test System: AMES SALMONELLA TYPHIMURIUM, Strain/Indicator: TA97, Metabolic Activation: NONE, Method: SPOT TEST): inactive; negative
- mutagenic call (Test System: AMES SALMONELLA TYPHIMURIUM, Strain/Indicator: TA97, Metabolic Activation: RAT, LIVER, S-9, PHENOBARBITAL, Method: SPOT TEST): inactive; negative
- mutagenic call [1]: inactive; negative
- mutagenic call (Test System: AMES SALMONELLA TYPHIMURIUM, Strain/Indicator: TA98, Metabolic Activation: NONE, Method: SPOT TEST): inactive; negative
- mutagenic call (Test System: AMES SALMONELLA TYPHIMURIUM, Strain/Indicator: TA98, Metabolic Activation: RAT, LIVER, S-9, PHENOBARBITAL, Method: PREINCUBATION): inactive; negative
- mutagenic call (Test System: AMES SALMONELLA TYPHIMURIUM, Strain/Indicator: TA98, Metabolic Activation: RAT, LIVER, S-9, PHENOBARBITAL, Method: SPOT TEST): inactive; negative
- mutagenic call [2]: inactive; negative
- mutagenic call (Test System: AMES SALMONELLA TYPHIMURIUM, Strain/Indicator: TA100, Metabolic Activation: NONE, Method: SPOT TEST): inactive; negative
- mutagenic call (Test System: AMES SALMONELLA TYPHIMURIUM, Strain/Indicator: TA100, Metabolic Activation: RAT, LIVER, S-9, PHENOBARBITAL, Method: PREINCUBATION): inactive; negative
- mutagenic call (Test System: AMES SALMONELLA TYPHIMURIUM, Strain/Indicator: TA100, Metabolic Activation: RAT, LIVER, S-9, PHENOBARBITAL, Method: SPOT TEST): inactive; negative
- mutagenic call (Test System: AMES SALMONELLA TYPHIMURIUM, Strain/Indicator: TA102, Metabolic Activation: NONE, Method: SPOT TEST): inactive; negative
- mutagenic call (Test System: AMES SALMONELLA TYPHIMURIUM, Strain/Indicator: TA102, Metabolic Activation: RAT, LIVER, S-9, PHENOBARBITAL, Method: SPOT TEST): inactive; negative
